Measured values from ChEMBL document CHEMBL1156829 (Proc Natl Acad Sci U S A, 2008).

What was measured:
Plasmodium falciparum [1] = test: NOVARTIS: Inhibition of Plasmodium falciparum 3D7 (drug-susceptible) proliferation in erythrocyte-based infection assay; assay type: functional, organism-based; conditions: Plasmodium falciparum, 3D7
Plasmodium falciparum [2] = test: NOVARTIS: Inhibition of Plasmodium falciparum W2 (drug-resistant) proliferation in erythrocyte-based infection assay; assay type: functional, organism-based; conditions: Plasmodium falciparum, W2; read-out: EC50
[3] = NOVARTIS: Cytotoxicity against human hepatocellular carcinoma cell line (Huh7); assay type: toxicity, cell-based, Huh-7; conditions: Huh7 cells (hepatocellular carcinoma cell line)

| SMILES | EC50 (Plasmodium falciparum [1]) | EC50 (Plasmodium falciparum [2]) | CC50 [3] |
| --- | --- | --- | --- |
| CCN1CCCC1CNc1[nH]cnc2c3cc(F)ccc3nc1-2 (centres undefined) | 808 nM | 1260 nM | 22400 nM |
| C=C[C@H]1CN2CC[C@H]1C[C@H]2[C@H](OC(C)=O)c1ccnc2ccccc12 | 1460 nM | 590 nM | > 10000 nM |
| OC(CN1CCN(CC(O)Cn2c3ccccc3c3cc(Br)ccc32)CC1)Cn1c2ccccc2c2ccccc21 (centres undefined) | > 1260 nM | 576 nM | > 10000 nM |
| C/C=C/c1n(C)c2ccccc2[n+]1C | 501 nM | 589 nM | > 10000 nM |
| O=C(CCl)Nc1ccc(Cl)cc1 | 544 nM | 342 nM | 5700 nM |
| Cc1ccc(C2(C)CC(C)(C)N(C(=O)Cc3ccccc3)c3ccc(C(c4ccccc4)(c4ccccc4)c4ccccc4)cc32)cc1 (centres undefined) | 4790 nM | 5680 nM | > 100000 nM |
| COc1ccc(/C=C\c2nc(=O)c3ccccc3o2)cc1 | 697 nM | 587 nM | > 10000 nM |
| CCCCc1ccc(C(=O)N(CCc2ccccc2)C(CC)c2nc3ccccc3c(=O)n2-c2ccccc2OC)cc1 (centres undefined) | 311 nM | 354 nM | > 6270 nM |
| CCCCCc1ccc(C(=O)N(CCCC(C)Nc2cc(OC)cc3cccnc23)Cc2ccc(OC)c(OC)c2)cc1 (centres undefined) | 514 nM | 284 nM | 5030 nM |
| CCN1/C(=C/C=C/c2oc3ccc4ccccc4c3[n+]2CC)Oc2ccc3ccccc3c21 | > 1250 nM | 578 nM | > 10000 nM |
| CC(C)N1CCCC(C(=O)Nc2ccc(-c3nc4ccccc4[nH]3)cc2)C1 (centres undefined) | 969 nM | 593 nM | > 10000 nM |
| COc1cc(OC)cc(C(=O)N2CCN(Cc3cccc(Br)c3)CC2)c1 | > 12500 nM | 5920 nM | > 100000 nM |
| CCCCCCCn1c2c(c(=N)c3ccccc31)CCC2 | 277 nM | 231 nM | 3860 nM |
| COc1ccccc1NC(=O)CCN1CCCC(C)C1 (centres undefined) | > 1650 nM | > 598 nM | > 10000 nM |
| CCN(CC)CCN(C)C1CCc2c(c(C(=O)N3CCCC3)nn2C)C1 (centres undefined) | > 424 nM | > 738 nM | 12400 nM |
| CN(C)c1cccc(Nc2cc(-c3ccc(CC(N)C(=O)O)cc3)nc3ccnn23)c1 (centres undefined) | 600 nM | 594 nM | > 10000 nM |
| COC(=O)C1=C(C)N(C)C(C)=C(C(=O)OC)C1c1ccc(C)cc1 | > 811 nM | > 567 nM | > 9490 nM |
| COc1ccc2cc(C(C)=NO)ccc2c1 | > 12500 nM | > 5970 nM | > 100000 nM |
| C=C[C@H]1CN2CC[C@H]1C[C@H]2[C@H](OC(=O)c1ccc(Cl)cc1)c1ccnc2ccccc12 | 412 nM | 564 nM | > 10000 nM |
| c1ccc2c(NC3CCCC3)nc(Nc3ccc4c(c3)OCO4)nc2c1 | 525 nM | 753 nM | 12800 nM |
| C[n+]1c(-c2ccccc2)cc(-c2ccccc2)cc1-c1ccccc1 | > 1020 nM | > 590 nM | > 10000 nM |
| CCCCOc1c2ccccc2nc2ccccc12 | > 1250 nM | > 592 nM | > 10000 nM |
| OC(CNc1cccc2ccccc12)Cn1c2ccccc2c2ccccc21 (centres undefined) | 2590 nM | 883 nM | 14900 nM |

| SMILES | EC50 (Plasmodium falciparum [1]) | EC50 (Plasmodium falciparum [2]) | CC50 [3] |
| --- | --- | --- | --- |
| CCCCCN(C(=O)c1cccc([N+](=O)[O-])c1)C(CC)c1nc2ccccc2c(=O)n1-c1ccccc1OC (centres undefined) | > 1250 nM | 591 nM | > 10000 nM |
| CCC(=O)N1CCc2cc(Br)cc(S(=O)(=O)N3CCCCC3CC)c21 (centres undefined) | 9980 nM | 5700 nM | > 100000 nM |
| CCC1=NN2C(=N)/C(=C/c3cn(CCOc4cccc(C)c4)c4ccccc34)C(=O)N=C2S1 | > 1250 nM | > 572 nM | > 10000 nM |
| Cc1cc2c(cc1S(=O)(=O)N(C)C1CCCCC1)OCC(=O)N2 | > 1250 nM | > 569 nM | > 10000 nM |
| OCCN(CCO)CC(O)Cn1c2ccc(Br)cc2c2cc(Br)ccc21 (centres undefined) | 2330 nM | 1550 nM | 27300 nM |
| Cc1ccc(O)c(NC(=O)c2cnn3c(C(F)(F)F)cc(-c4ccc(F)cc4)nc23)c1 | 10500 nM | 5720 nM | > 100000 nM |
| C=CC1CN2CCC1CC2[C@H](O)c1ccnc2ccc(O)cc12 (some centres undefined) | 404 nM | 5720 nM | > 100000 nM |
| Nc1nc(NCC2CCC(CNS(=O)(=O)c3cccc4ccccc34)CC2)nc2ccccc12 (centres undefined) | 684 nM | 571 nM | > 10000 nM |
| CCCCn1c(=N)c(C(=O)NC(C)c2ccccc2)cc2c(=O)n3cccc(C)c3nc21 (centres undefined) | 1380 nM | > 5680 nM | > 100000 nM |
| O=C(Cn1c2ccccc2c(=O)c2cc([N+](=O)[O-])ccc21)Nc1ccc(F)c(Cl)c1 | > 12500 nM | 5670 nM | > 100000 nM |
| c1ccc(OCCOc2ccc(Nc3c4ccccc4nc4ccccc34)cc2)cc1 | 505 nM | 347 nM | 6120 nM |
| CCCN(Cc1cc(OC)c2c(c1)OCO2)CC1CC1 | > 1720 nM | 566 nM | > 10000 nM |
| O=C(NCCCCNc1ccnc2cc(Cl)ccc12)c1ccc([N+](=O)[O-])cc1 | 486 nM | 565 nM | > 10000 nM |
| CCOC(=O)c1sc(NC(=O)CSc2nnc(CNC(=O)COc3ccc(Cl)cc3)n2C)c(C(=O)OCC)c1C | 1080 nM | > 601 nM | > 10000 nM |
| CCc1ccc(NC(=O)c2ccc(F)c(S(=O)(=O)N3CCN(C)CC3)c2)cc1 | > 1250 nM | > 584 nM | > 10000 nM |
| Cc1cc(NS(=O)(=O)c2ccc(N=Cc3ccc(C#N)cc3)cc2)no1 | > 1640 nM | > 582 nM | > 10000 nM |
| COc1ccc(C(=O)C(C)[n+]2cccc3ccc4cccnc4c32)cc1 (centres undefined) | 195 nM | > 577 nM | > 10000 nM |
| NC(=S)NN=C1c2ccccc2-c2nc3nonc3nc21 | 1130 nM | 582 nM | > 10000 nM |
| C=C(C)[C@@]12O[C@@H]1[C@@]1(C)C(=CC2=O)CC[C@@H](O)[C@@H]1C | 787 nM | 586 nM | > 10000 nM |
| CCCC1(CCC)NC(=S)N(c2ccc(C)c(C)c2)N1 | > 1250 nM | > 576 nM | > 10000 nM |
| COc1ccc(-n2nc(C(C)(C)C)cc2NC(=O)CN(C(=O)c2ccc(C)c([N+](=O)[O-])c2)C(C)C)cc1 | 1550 nM | 1820 nM | 31100 nM |
| O=C(NCCc1nc(-c2cccnc2)n[nH]1)C12CC3CC(CC(C3)C1)C2 | > 1250 nM | 581 nM | > 10000 nM |
| CCCCCCC(NC(=O)OCc1ccccc1)S(=O)(=O)c1ccc(C)cc1 (centres undefined) | > 12500 nM | 5800 nM | > 100000 nM |

| SMILES | EC50 (Plasmodium falciparum [1]) | EC50 (Plasmodium falciparum [2]) | CC50 [3] |
| --- | --- | --- | --- |
| NS(=O)(=O)c1ccc(CCNC(=O)/C=C/c2ccc3c(c2)OCO3)cc1 | > 1400 nM | > 583 nM | > 10000 nM |
| CCN(CC)c1ccc(C=C(C#N)c2nc3ccccc3[nH]2)o1 | 3350 nM | > 2670 nM | 46200 nM |
| COc1ccc(N(CC(=O)Nc2cc(OC)ccc2OC)S(=O)(=O)c2ccc(C)cc2)cc1 | > 1250 nM | > 583 nM | > 10000 nM |
| COc1ccc(OCC(O)CNC2CCN(CC(O)COc3ccc(Cl)c(Cl)c3)CC2)cc1 (centres undefined) | 328 nM | 524 nM | 9140 nM |
| c1ccc(-c2cc(NCCCN3CCOCC3)nc(-c3ccccn3)n2)nc1 | > 1010 nM | 586 nM | > 10000 nM |
| c1ccc(-c2ccccc2OCCNCCN2CCOCC2)cc1 | 10100 nM | 2700 nM | 46800 nM |
| O=C(Cn1c2ccccc2c(=O)c2ccc(Cl)cc21)Nc1cccc(Cl)c1 | 934 nM | 589 nM | > 10000 nM |
| O=C(NC1CCCCC1)c1noc2c1CCCCC2 | > 12500 nM | 5670 nM | > 100000 nM |
| O=C(/C=C/c1ccc(-c2cccc([N+](=O)[O-])c2)o1)Nc1nccs1 | > 1250 nM | > 570 nM | > 10000 nM |
| CCCCCCN(C(=O)COCc1ccccc1)C(C)c1nc2ccccc2c(=O)n1-c1cccc(Cl)c1C (centres undefined) | 1160 nM | 596 nM | > 10000 nM |
| Nc1cc(-c2cccs2)n[nH]1 | > 11200 nM | > 5810 nM | > 100000 nM |
| CN(CCCNc1ccnc2cc(Cl)ccc12)S(=O)(=O)c1ccc(Cl)c([N+](=O)[O-])c1 | 243 nM | 185 nM | 3140 nM |
| CCOc1ccccc1-n1c(C(C)N(Cc2ccccc2)C(=O)Nc2ccccc2OC)nc2ccccc2c1=O (centres undefined) | 484 nM | 397 nM | > 6650 nM |
| CCc1cc(C(=O)OC)c(NC(=S)NC(C)c2ccncc2)s1 (centres undefined) | 4550 nM | 5160 nM | > 86900 nM |
| Brc1ccc2[nH]c3nc4ccccc4nc3c2c1 | > 12500 nM | > 5920 nM | > 100000 nM |
| Cc1ccc(NC(=O)C(C)Sc2nnc(-c3ccc(O)cc3)o2)cc1 (centres undefined) | > 1250 nM | 601 nM | > 10000 nM |
| CCOC(=O)C1=C(N)OC2=C(C(=O)CC(c3ccccc3)C2)C1c1ccc(Cl)cc1Cl (centres undefined) | > 1250 nM | > 600 nM | > 10000 nM |
| Cc1cc(C)cc(-n2c(C)cc(/C=C3/SC(=Nc4ccc(Br)cc4)NC3=O)c2C)c1 | 325 nM | 588 nM | > 10000 nM |
| CCCN(C(=O)Nc1c(C(C)C)cccc1C(C)C)C(CC)c1nc2ccccc2c(=O)n1-c1cccc(C)c1 (centres undefined) | 3170 nM | 4580 nM | 80900 nM |
| CC(C)(C)NC(=O)C(c1ccncc1)N(Cc1ccccc1Cl)C(=O)c1ccc(-c2ccccc2)[nH]1 (centres undefined) | > 6470 nM | > 3990 nM | 67400 nM |
| CCCCCN(C(=O)c1ccc2ccccc2c1)C(CC)c1nc2ccccc2c(=O)n1-c1ccc(Cl)cc1C (centres undefined) | 961 nM | 587 nM | > 10000 nM |
| CCN1CCN(CCN2C(=O)C3C(C(=O)Nc4ccc(C(C)C)cc4)C4C=CC3(O4)C2C(=O)NC2CCCCC2)CC1 (centres undefined) | > 12500 nM | 5820 nM | > 100000 nM |
